Several values for one entry are separate records, joined by “and”; a condition that tells them apart may be missing. Equal entries are not always repeated.
Legend:
BCL-XL = BCL-XL (Homo sapiens, UniProt Q07817); assay: Fluorescence polarization (FP) with Fluorescein-PUMA, BCL-XL; assay type: binding; details: Fluorescein-PUMA as binder; read-out: FP_BCL-XL_KI
Protocol: Final concentrations of MCL-1, BFL-1, BCL-2 and BCL-XL proteins were 10, 10, 10 and 20 nM respectively. The assay plates were incubated for 2 hours at room temperature and the FP was measured on a Synergy 2 reader (Ex. 528 nm, Em. 640 nm, Cut-off 510 nm). The binding of increasing doses of compound was expressed as a percentage reduction in mP compared to the window established between ‘DMSO only’ and ‘total inhibition’ control (30 μM PUMA). […] The KI was subsequently calculated as previously described [42].

MCL-1 = MCL-1 (Homo sapiens, UniProt Q07820); assay: Fluorescence polarization (FP) with Fluorescein-PUMA, MCL-1; assay type: binding
RS4;11 cell line = assay: CellTiter-Glo cell viability, RS4;11; assay type: cell-based; details: Homo sapiens, 72 h of treatment
Protocol: (§1) Cells were seeded into 96-well plates and treated at 8 points with 1:2 serial dilution of compounds. Cell viability was assessed and assayed for viability using CellTiter-Glo reagent (Promega) following the manufacturer's instructions. Plates were read using Tecan luminescence plate reader. Results were normalized to the viability of cells without compounds (control wells). The IC50 values were calculated using nonlinear regression algorithms in XCell software.

[1] = tested on: control RS4;11 cells (shRNA CT); assay: Viability of RS4;11 cells transduced with shRNA CT (control); assay type: cell-based; details: Homo sapiens, 72 h
[2] = tested on: BAX-deficient RS4;11 cells; assay: Viability of RS4;11 cells transduced with shRNA BAX; assay type: cell-based; details: 72 h
BCL-2/BAX complex [3] = target: T1, BCL-2/BAX complex (Homo sapiens, UniProt P10415); assay: Co-immunoprecipitation in RS4;11 cells; assay type: cell-based; details: 2 h, increasing concentrations
BCL-2/BAX complex [4] = target: T1, BCL-2/BAX complex; assay: Co-immunoprecipitation in BCL-2-overexpressing HeLa cells; assay type: cell-based; details: 2 h
[5] = tested on: BCL-2-dependent FL5.12 cells; assay: Apoptosis (annexin V/PI) in FL5.12 cells expressing BCL-2 upon IL-3 withdrawal; assay type: cell-based, murine; details: 24 h upon IL-3 withdrawal
[6] = tested on: isolated platelets from healthy volunteers; assay: Apoptosis (annexin V) in isolated platelets; assay type: cell-based; details: Homo sapiens, Platelet; 4 healthy donors, 3 h; read-out: EC50 apoptosis (PS+) in isolated platelets
Protocol: Peripheral blood samples from CLL patients were obtained with informed patient consent and local ethical committee approval (UHL-09723). […] Interphase fluorescence in situ hybridization (FISH) was performed for detection of 17p13 deletion. Mantle cell lymphoma (MCL) primary cells were obtained after informed consent from MCL patients treated at the department of clinical hematology from the University Hospital of Nantes, France. Peripheral MCL cells from blood or pleural effusion, were purified after Ficoll-Hypaque separation with immuno-magnetic anti-CD19 beads (Miltenyi, Paris, France). Primary cells were cultured in RPMI-1640 supplemented with 10% FCS and 2 mM glutamine. Human platelets were isolated from citrate blood donated by healthy volunteers. Washed platelets were cultured in Hepes-buffered saline (HBS, 10 mM Hepes, 150 mM NaCl, 5 mM KCl, 1 mM MgSO4, pH 7.4).
EC50 values were calculated using GraphPadPrism (non-linear fit, sigmoidal dose response, variable slope). […] Cell death was assessed in the CD19+ primary MCL cells by annexinV-FITC staining combined with an analysis of altered cellular morphology (lower FCS). Fluorescence was analyzed on FACSCalibur.

[7] = tested on: Burkitt lymphoma cell lines; assay: CellTiter-Glo viability, Burkitt lymphoma cell line panel; assay type: cell-based; details: 72 h; all Burkitt lymphoma cell lines tested
Protocol: as §1

Toledo cells = assay: CellTiter-Glo viability, Toledo; assay type: cell-based; details: Homo sapiens, 72 h
Protocol: as §1

[8] = tested on: caspase-3 activity in RS4;11 tumor xenografts; assay: Caspase-3 activity in RS4;11 tumor xenografts; assay type: in vivo; details: 16 h post dosing, SCID mice
Protocol: Body weights were recorded and tumors were measured with digital calipers twice to three times a week. Tumor volume was calculated using the formula: length × width^2/2. Percent changes in body weights was calculated as (BWcurrent - BWinitial)/(BWinitial) × 100. Data is presented as percent body weight change from the day of treatment initiation. When tumors reached approximately 200 mm^3 for efficacy studies or 300 mm^3 for pharmacodynamic studies, mice were randomized. […] Mice were treated via oral gavage at 10 ml/kg with the doses and schedules described in the figure. For pharmacodynamic studies, blood and tumors were removed 16 h post dosing and immediately snap-frozen. Total proteins were extracted from the tumors and caspase-3 activity was assessed in triplicate using CaspACE® Assay System (Promega). Platelet cell counts were determined 16 hours post dosing using Coulter AcT diff (Beckman).

[9] = Body weight in Toledo-bearing mice; assay type: in vivo; details: doses up to 300 mg/kg, oral five times a week for 3 weeks
Protocol: For each experiment, female SCID/beige mice were implanted subcutaneously (right axillary region) with 3 × 10^6 Toledo or RS4;11 (1 × 10^6 cells for efficacy studies and 1 × 10^7 cells for pharmacodynamics studies) suspended in 1:1 mixture of cold DPBS and Matrigel™ in a total volume of 100 μl. Body weights were recorded and tumors were measured with digital calipers twice to three times a week. Tumor volume was calculated using the formula: length × width^2/2. Percent changes in body weights was calculated as (BWcurrent - BWinitial)/(BWinitial) × 100. Data is presented as percent body weight change from the day of treatment initiation.

RS4;11 cells = assay: Apoptosis hallmarks in RS4;11 cells (annexin V/PI flow cytometry, MSD cleaved caspase-3 and PARP); assay type: cell-based
Protocol: Cells were incubated with 200 μl of binding buffer containing AnnexinV-FITC (Invitrogen) and propidium iodide (PI, Sigma) during 15 min at 20° C in the dark. THP-1 cells were incubated with 200 μl of binding buffer containing AnnexinV-APC (BD Biosciences) and DAPI (Sigma). 400 μl of binding buffer was added and samples were kept at 4° C before cytometric analysis. […] Fluorescence was collected at 520 (FITC), 630 nm (PI), 660 nm (APC) and 470 (DAPI). Numbers of apoptotic cells (addition of primary apoptosis, secondary apoptosis and necrosis) was normalized to the total numbers of cells per tubes. page 6: Cleaved PARP and cleaved caspase-3 Cleared lysates (5 μg) were assayed for immunodetection immunodetection by MesoScale Discovery of cleaved PARP and cleaved caspase-3 with MSD (MSD) assay Apoptosis Panel Whole Cell Lysate kit (MSD […]) in 96-well plates according to manufacturer 's instructions, 24 h after seeding, cells were treated with the and analyzed on the Sector Image 2400. Control DMSO indicated compounds for 4 h and harvested in lysis buffer conditions were set to 100% and fold-activation calculated. […] Cleaved caspase-3 (C) and cleaved PARP (D) was measured using MesoScale Discovery Apoptosis panel. […]

BCL-XL/BAX complex = BCL-XL/BAX complex (Homo sapiens, UniProt Q07817); assay: Co-immunoprecipitation in BCL-XL-overexpressing HeLa cells; details: 2 h
Protocol: Effecten reagent (Qiagen), with 3xFlag-tagged BCL-XL
24 h later, transfected Hela and RS4;11
were put under neomycin selection (800 µg/ml, Invitrogen) were then subjected to immunoprecipitation with anti-

[10] = tested on: BCL-XL-dependent FL5.12 cells; assay: Apoptosis (annexin V/PI) in FL5.12 cells expressing BCL-XL upon IL-3 withdrawal; details: 24 h upon IL-3 withdrawal

MCL-1, sequence (Q07820 whole entry): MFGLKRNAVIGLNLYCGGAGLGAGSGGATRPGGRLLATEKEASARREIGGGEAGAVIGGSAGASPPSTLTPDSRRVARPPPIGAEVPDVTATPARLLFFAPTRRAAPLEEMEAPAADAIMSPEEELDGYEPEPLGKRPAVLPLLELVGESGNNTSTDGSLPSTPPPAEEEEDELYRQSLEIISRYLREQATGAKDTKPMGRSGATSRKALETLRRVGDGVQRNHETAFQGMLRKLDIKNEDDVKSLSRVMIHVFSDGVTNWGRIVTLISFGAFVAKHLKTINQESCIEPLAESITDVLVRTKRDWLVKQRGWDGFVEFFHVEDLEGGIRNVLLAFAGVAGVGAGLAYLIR
T1 sequence (P10415 whole entry, one chain of several): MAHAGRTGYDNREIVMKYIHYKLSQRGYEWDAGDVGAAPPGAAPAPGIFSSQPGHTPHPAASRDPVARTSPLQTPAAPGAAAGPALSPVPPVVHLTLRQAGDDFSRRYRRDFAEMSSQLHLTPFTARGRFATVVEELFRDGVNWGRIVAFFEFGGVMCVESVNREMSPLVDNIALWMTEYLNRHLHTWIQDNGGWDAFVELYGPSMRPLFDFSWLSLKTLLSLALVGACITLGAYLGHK
BCL-XL, sequence (Q07817 whole entry): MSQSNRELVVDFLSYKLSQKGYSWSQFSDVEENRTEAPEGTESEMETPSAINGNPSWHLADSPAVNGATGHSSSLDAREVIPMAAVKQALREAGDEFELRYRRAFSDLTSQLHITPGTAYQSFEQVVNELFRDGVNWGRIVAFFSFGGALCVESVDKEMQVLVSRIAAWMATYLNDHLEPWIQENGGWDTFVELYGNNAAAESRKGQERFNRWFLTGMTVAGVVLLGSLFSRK
BCL-XL/BAX complex, sequence (Q07817 whole entry, one chain of several): as the sequence (Q07817 whole entry) above

O=C(c1cc(-c2cc3c(cc2C(=O)N2Cc4ccccc4C[C@H]2CN2CCOCC2)OCO3)n2c1CCCC2)N(c1ccccc1)c1ccc(O)cc1 [S55746]
Ki (BCL-XL): 520 nM
binding to MCL-1 (MCL-1; FP): No significant binding
FP_MCL-1, % of inhibition at the maximal tested concentration (MCL-1; at 30E-06 M): 4.3% and 4.5%
IC50 (RS4;11 cell line): 71.6 nM
IC50 [1]: 57 nM
reduction of sensitivity of BAX-deficient versus control RS4;11 [2]: ≈ 50 fold
IC50 ([2]; Homo sapiens, RS4-11, shRNA BAX): 2700 nM
disruption of the BCL-2/BAX complex in RS4;11 cells (BCL-2/BAX complex [3]): concentration-dependent disruption of the BCL-2/BAX complex
effect on BCL-2/BAX complex in BCL-2-overexpressing HeLa cells (BCL-2/BAX complex [4]): affects BCL-2/BAX complex
apoptosis induction (PS+ cells) in BCL-2-dependent FL5.12 cells [5]: strongly induce apoptosis
EC50 [6]: > 3000 nM
IC50 [7]: > 10000 nM
IC50 (Toledo cells): 401 nM
caspase-3 activity in tumor, times higher than in vehicle-treated animals ([8]; 25 mg/kg single oral gavage): about 11 times
caspase-3 activity in tumor, times higher than in vehicle-treated animals ([8]; 100 mg/kg single oral gavage): ~28 times
body weight compared to the vehicle control group [9]: did not significantly differ
apoptosis induction, externalization of phosphatidylserine (PS+ cells) (RS4;11 cells; 2 h): rapidly induced apoptosis in a concentration dependent-manner
cleavage of caspase-3 and PARP (RS4;11 cells; MSD assay): observed upon treatment by S55746 in a concentration dependent manner
effect on BCL-XL/BAX complex in BCL-XL-overexpressing HeLa cells (BCL-XL/BAX complex): without any significant effect on the BCL-XL/BAX complex
apoptosis induction (PS+ cells) in BCL-XL-dependent FL5.12 cells [10]: minor effect

— PMC5929447 (Oncotarget, 2018)
